Legend:
BG01 cells [1] = assay: RT-PCR analysis of differentiation markers in inhibitor treated BG01 cells; type: cell-based, human
Method: (§1) The inhibitor studies are performed as described in Example 2.
Total RNA is isolated using TRIzol Reagent (GibcoBRL). RNA is run on a 1% agarose gel containing ethidium bromide and visualized using the AlphaImager™ 2200 Documentation and Analysis System to ensure RNA integrity. 10 μg of RNA is treated with DNase (Ambion), which is removed with DNase Inactivation Reagent (Ambion). cDNA is prepared with 500 ng of total RNA using the Superscript II Reverse transcriptase Kit (Invitrogen) using oligo(dT) primers. PCR reactions are carried out on 1 μl of cDNA. PCR products are run on a 2% agarose gel containing ethidium bromide and visualized using the Alphaamager™ 2200 Documentation and Analysis System. PCR primer sets used were GATA4, Mix1, Msx1, AFP, HNF4alpha, eHAND, Nanog, AFP and GAPDH.

[2] = test system: PI3-kinase signaling pathway; assay: Western blot analysis of PI3-kinase signaling pathway activity (phosphorylated PKB/Akt, S6 kinase, S6 protein); type: cell-based, human; settings: BG01 cells maintained in the presence of inhibitor
Method: Activity of the PI3-kinase signaling pathway may be assessed by Western blot analysis. Briefly, detergent extracts are prepared from untreated and treated cell cultures, separated by SDS-PAGE and blotted to nitrocellulose. Expression of active forms of the PI3-kinase intracellular targets PKB/Akt, S6 kinase and S6 protein are then determined by probing the nitrocellulose with appropriate antibodies to phosphorylated forms of each of these proteins. Generally, 30 μg of total protein are evaluated for each sample, primary incubations were carried out at a 1:1000 dilution of antibody, and binding in each case is detected by standard ECL based methodology.

BG01 cells [3] = assay: Flow cytometry of cell surface markers (CD9) on inhibitor treated BG01 cells; type: cell-based, human
Method: as §1
For flow cytometry, the BG01 cells are washed with 1×PBS and fixed in 2% paraformaldehyde/1×PBS for 10 minutes at room temperature. The cells are then washed in 1×PBS and approximately 2×10^5 cells are incubated with primary antibody diluted in 1% BSA/1×PBS. The primary antibodies used are anti-CD9 and anti-thrombomodulin (Cymbus Biotechnology), FITC conjugated mouse monoclonal antibodies at a 1:10 dilution. Cells are incubated at 4° C. for 30 minutes and then washed twice in 1×PBS. Where appropriate, cells are resuspended in a secondary antibody, anti-mouse Alexa-488 (Molecular Probes) diluted 1:1000 in 1% BSA/PBS, incubated at 4° C. for 30 minutes, and then washed twice in 1×PBS. Cells are resuspended in 1% BSA/1×PBS and surface expression is analyzed using a Beckman Coulter FC500.

BG01 cells [4] = assay: Morphology of BG01 hES cells cultured with PI3-kinase pathway inhibitors (standard microscopy); type: cell-based, human
Method: BG01 cells are passaged from feeders using the collagenase/trypsin method and are plated on matrigel coated dishes at 1×10^5 cells/35 mm dish in conditioned medium (CM; MEF conditioned medium plus 8 ng/ml bFGF). After approximately 24 hours, the media is replaced with fresh CM, CM with inhibitor (resuspended in EtOH), CM with EtOH, or with Spontaneous Differentiation medium (hES medium minus bFGF).
In alternative methods, the BG01 cells may be plated at different concentrations prior to contact with CM, CM with inhibitor and CM with EtOH Cells may be plated at the following concentrations: approximately 5×10^4 cells/35 mm dish, approximately 1×10^5 cells/35 mm dish, approximately 2×10^5 cells/35 mm dish, approximately 4×10^5 cells/35 mm dish and, approximately 6×10^5 cells/35 mm dish.
The inhibitor LY 294002 (Biomol) may be preferably used at the concentration range approximately 20-163 μM and the inhibitor Rapamycin (Calbiochem) is used at the concentration range approximately 1.5-30 nM. LY 294002 inhibits the PI3-kinase pathway by binding to the ATP docking site of p110. Rapamycin inhibits a subset of the PI3-kinase pathway by inhibiting mTOR (mammalian target of rapamycin).
Cells are grown in these conditions for approximately 72 hours with a medium change every 24 hours. Cells are harvested using the collagenase/trypsin method for flow cytometry and RT-PCR analysis and are scraped for biochemical analysis.
In undifferentiated cultures, individual cells are not easily discernable, being relatively small, irregular and without clearly apparent intercellular junctions at higher density. […] Individual cells are also more readily discernable at higher densities since discrete intercellular adhering junctions are evident between neighboring cells.

[5] = test system: human definitive endoderm cells (DE); assay: Pancreatic endoderm formation from definitive endoderm with retinoic acid in FCS base media (Pdx1, Isl1 markers); type: cell-based
Method: BG01 hESCs were treated with LY 294002 (50 μM) for four days then switched to media containing DMEM/F12, 10% FCS, 50 ng/ml Fgf10 and 2 μM retinoic acid for up to four days. Untreated-untreated hESCs. Transcript levels were analyzed by QRT-PCR in triplicate and shown as the fold-increase over untreated samples (hESCs) after normalization to GAPDH reference transcript. Fold-induction of Pdx1 transcript levels are indicated.
BG01 hESCs were treated with LY 294002 (50 μM) for four days then switched to media consisting of DMEM/F12, 10% FCS, 50 ng/ml Fgf10 and 2 μM retinoic acid for up to four days. Untreated: untreated hESCs. Transcript levels were analyzed by QRT-PCR in triplicate and shown as the fold-increase over untreated samples (hESCs) after normalization to GAPDH reference transcript.
The present invention relates to pancreatic endoderm cells (PE) which are obtained from definitive endoderm cells by exposing the definitive endoderm cells to an effective concentration of retinoic acid (at least about 0.05-0.1 μg/ml, preferably about 0.1-25 μg/ml, more preferably about 0.1-2.0 μg/ml) in base media comprising an effective amount of fetal calf serum (FCS— preferably about 10% of the base media plus serum) for a period of at least about 2 days, preferably at least about 4 days, and more preferably about 4 days, followed by exposing the cells obtained from the first step to FCS (preferably, about 10%) in base media for at least one day, preferably at least about 2 days in the absence of retinoic acid. This method preferably results in at least about 35-50% and preferably at least about 70-80+% of the cells in the treated sample expressing the pancreatic endoderm markers, Pdx1 and Isl1.
Definitive endoderm cells (from treatment above) are washed 2× with PBS. 2-3 ml Trypsin/EDTA solution is added and cells are triturated and collected in a 15 ml conical tube. DMEM/F12 with 10% FBS is added to stop the trypsinization and the cells are centrifuged at 200×g for 5 minutes. […]

BG01 hESCs = assay: AFP transcript induction (QRT-PCR) following treatment of definitive endoderm; type: cell-based, human; settings: DE from LY 294002 (50 μM, four days), then DMEM/F12, 10% FCS up to six more days, presence or absence of Fgf10
Method: BG01 hESCs were differentiated into definitive endoderm for four days following the addition of LY 294002 (50 μM). Media was changed to DMEM/F12, 10% FCS and cells grown for up to six more days. Untreated: untreated hESCs. AFP transcript levels were analyzed by QRT-PCR in triplicate and shown as the fold-increase over untreated samples (hESCs) after normalization to GAPDH reference transcript.
The first example relates to the generation of cells expressing the embryonic liver marker alphafetoprotein (AFP) following treatment of definitive endoderm. BG01 hESCs were differentiated into definitive endoderm for four days following the addition of LY 294002 (50 μM). Media was changed to DMEM/F12, 10% FCS and cells grown for up to six more days. Untreated: untreated hESCs. AFP transcript levels were analyzed by QRT-PCR in triplicate and shown as the fold-increase over untreated samples (hESCs) after normalization to GAPDH reference transcript.

O=c1cc(N2CCOCC2)oc2c(-c3ccccc3)cccc12 [LY 294002, 2-(4-Morpholinyl)-8-phenyl-4H-1-benzopyran-4-one]
markers indicative of early differentiation (BG01 cells [1]): may be detected | activity of Akt [2]: inhibited | activity of S6 [2]: inhibited | activity of S6 kinase [2]: inhibited | cell surface CD markers expressed by undifferentiated hES cells (CD9, 27, 30, 46, 58 and 81) (BG01 cells [3]; after LY treatment): loss of a subset of cell surface CD markers | expression of CD9 (BG01 cells [3]; compared with spontaneous differentiation in adherent culture or embryoid bodies): may decrease more rapidly | cell spreading and morphology after treatment (BG01 cells [4]; BG01 cells after treatment, compared with undifferentiated cultures): marked spreading and adopted obvious epitheloid cuboidal morphologies | changes in morphology at high plating density (BG01 cells [4]; cells plated at approximately 4×10^5 cells/35 mm dish or higher): do not demonstrate the same morphological changes | changes in morphology at low plating density (BG01 cells [4]; cells plated lower than approximately 2×10^5 cells/35 mm dish): display changes in morphology | morphological change of BG01 cells (BG01 cells [4]; cultured in the presence of inhibitor, matrigel, conditioned medium, approximately 72 hours): undergo morphological change

CC1=C(/C=C/C(C)=C/C=C/C(C)=C/C(=O)O)C(C)(C)CCC1 [retinoic acid, all-trans retinoic acid]
homogeneity of differentiated cells ([5]; definitive endoderm cells cultured with retinoic acid in basal cell media): greater homogeneity than spontaneously differentiated cells | Isl1 expression ([5]; following treatment): marked increase | population of cells pure for the PE markers Pdx1 and Isl1 ([5]; from definitive endoderm cells): 70-80%

B1: Fgf10: fibroblast growth factor 10 (protein, UniProt O15520 38-208, looked up)
Fibroblast growth factor 10: QALGQDMVSPEATNSSSSSFSSPSSAGRHVRSYNHLQGDVRWRKLFSFTKYFLKIEKNGKVSGTKKENCPYSILEITSVEIGVVAVKAINSNYYLAMNKKGKLYGSKEFNNDCKLKERIEENGYNTYASFNWQHNGRQMYVALNGKGAPRRGQKTRRKNTSAHFLPMVVHS
AFP induction (BG01 hESCs): optimal AFP induction

Source: patent US20090298169A1, “Pancreatic and Liver Endoderm Cells and Tissue by Differentiation of Definitive Endoderm Cells Obtained from Human Embryonic Stems” (The University of Georgia Research Foundation, priority 2006, published 2009)
